Drawing on PubChem BioAssay AID365 (MTDP, 2006), this text covers IC50 for 61 compounds.

Active and inactive are the calls of the source. How the calls were made is not given here. Some results are limits rather than exact numbers.

For this assay, the target named is Ribonuclease HI (Escherichia coli (strain K12)) (UniProt P0A7Y4). Kind of assay: inhibition of bacterial ribonuclease H activity – biochemical, FRET RNA/DNA duplex cleavage, dose response (AID 365). The following applies: E. coli RNase H, FRET RNA/DNA cleavage fluorescence.
Chain of Ribonuclease HI (Escherichia coli (strain K12)) (P0A7Y4 whole entry, looked up): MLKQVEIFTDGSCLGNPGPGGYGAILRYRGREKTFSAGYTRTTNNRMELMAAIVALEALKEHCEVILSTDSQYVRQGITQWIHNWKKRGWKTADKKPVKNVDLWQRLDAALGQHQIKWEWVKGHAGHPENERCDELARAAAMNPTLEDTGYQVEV
With `COc1cccc2cc(C(N)=O)c(=O)oc12`, the IC50 is > 100 µM (inactive).
Then `CC(=O)C1=C(O)[C@@]2(O)C(=O)c3c(c(C)c4ccc(C)c(O)c4c3O)C[C@H]2[C@@H](N)C1=O`, with 9 µM; and `C[C@]12CC[C@H]3[C@@H](CCC4=CC(=O)CC[C@@]43C)[C@@H]1CC[C@@H]2C(=O)COS(=O)(=O)c1ccc(Br)cc1`, with “inactive”.
Take `O=C1CC(=O)c2ccc3c4c(ccc1c24)C(=O)CC3=O`: the IC50 was 5.2 µM.
For the compound `FC(F)(F)c1nc2ccc(SSc3ccc4nc(C(F)(F)F)[nH]c4c3)cc2[nH]1`, the IC50 is 8 µM.
The value for `N#Cc1c(NC(=O)C(F)(F)F)sc2c3c(=O)c4ccccc4c(=O)c=3oc3ccccc3c12` was “inactive”.
Then `C[N+](C)=c1ccc2nc3c(cc(Nc4ccccc4)c4ccccc43)oc-2c1`, with 2.8 µM.
Then `CC1Oc2cc3c(-c4c(O)cc(O)c5c(O)c6c(cc45)OC(C)C(C)C6=O)c(O)cc(O)c3c(O)c2C(=O)C1C` (stereo unspecified), with “inactive”; and `Cc1ccc(-c2n[nH]c(=S)n2/N=C/c2ccc(O)c(O)c2O)cc1`, with “inactive”; and `Cc1ccc(C)n1-c1ccc(Br)cc1C(=O)O`, with “inactive”.
For `C=CC(C)(C)C12CC3C(=O)N/C(=C\c4cnc[nH]4)C(=O)N3C1Nc1ccccc12` (stereo unspecified), the IC50 was > 100 µM (inactive).
Then `CCOC(=O)Oc1c(OC)cc(C(=O)O[C@@H]2C[C@@H]3CN4CCc5c([nH]c6cc(OC)ccc56)[C@H]4C[C@@H]3[C@H](C(=O)OC)[C@H]2OC)cc1OC`, with > 100 µM (inactive); and `Cc1cc(C(=O)O)ccc1-n1c(C)ccc1C`, with > 100 µM (inactive).
Then `Nc1c(S(=O)(=O)O)cc(Nc2cccc(S(N)(=O)=O)c2)c2c1C(=O)c1ccccc1C2=O`, with “inactive”.
The value for `C[C@@H]1[C@H](O)c2c(c3c(c4c(-c5ccccc5)cc(=O)oc24)OC(C)(C)C=C3)O[C@@H]1C` was 8 µM; that for `O=C(O)/C=C/c1c2ccc(=O)c(O)c-2oc2c(O)c(O)ccc12` was 2 µM.
Consider `O=c1c(O)cccc2cc(O)c(O)c(O)c12`, for which the IC50 result is “inactive”.
As for `Cc1sc(NC(=O)c2cccc([N+](=O)[O-])c2)c(C(N)=O)c1C`, the IC50 is 0.7 µM.
Then `CCCCCCCCCCCCCCCCCCOCC(O)CO` (stereo unspecified), with > 100 µM (inactive).
Then `CN(C)CN1CSC(=S)N(CN(C)C)C1`, with “inactive”; and `CC1=c2c(oc3cc(O)c(Nc4c(C)cc(O)cc4O)c(C)c23)=CC(=O)C1=Nc1c(C)cc(O)cc1O`, with 5.2 µM.
Then `O=C1NC(=S)N(c2ccc(Cl)cc2)C(=O)/C1=C/c1ccc(Br)o1`, with 1.7 µM; and `Cc1ccc(NC(=O)c2c(NC(=O)c3ccccc3F)sc3c2CCCCC3)cc1`, with 0.6 µM; and `CC1=C(C)CC(C(=O)Nc2ccc(N3C(=O)c4ccccc4C3=O)cc2)C(C(=O)O)C1` (stereo unspecified), with > 100 µM (inactive).
For the compound `C=CCn1c(N)c(-c2nc3ccccc3[nH]2)sc1=S`, the IC50 result is “inactive”.
Then `Cc1sc(NC(=O)C2CC3CCC2C3)c(C(N)=O)c1C` (stereo unspecified), with “inactive”; and `COc1cc(/C=N\c2sc3c(c2C(=O)NCc2ccccc2)CCCC3)cc(Cl)c1O`, with 0.95 µM; and `CCOc1ccc(NC(=O)c2c(NC(=O)c3ccccc3)sc3c2CCCCC3)cc1`, with 0.33 µM.
`Cc1ccc(N2C(=O)/C(=C/c3ccc(O)c(O)c3)SC2=S)cc1C`: the IC50 is 2 µM.
Then `O=c1[nH]c(=S)n(-c2ccccc2F)c(O)c1C=C1C=CC=N1`, with 0.8 µM; and `O=C1c2cc([N+](=O)[O-])ccc2-c2ccc3c4ccc5c6c(ccc(c7ccc1c2c73)c64)C(=O)c1cc([N+](=O)[O-])ccc1-5`, with 1.8 µM; and `CC(=O)/C=C/C=C/c1ccc2c(c1)OC(CO)C(c1ccc(O)c(O)c1)O2` (stereo unspecified), with “inactive”.
Then `O=C(O)c1c(Br)c(Br)c(Br)c(Br)c1C1c2ccc(O)cc2Oc2cc(O)ccc21`, with 8 µM.
Consider `Cc1nn(CC(=O)Nc2sc(C)c(C)c2C(N)=O)c(C)c1[N+](=O)[O-]`, for which the IC50 is 8.2 µM.
As for `CC1=C(CCC(=O)O)c2cc3nc(cc4[nH]c(cc5[nH]c(cc1n2)c(C)c5C(C)O)c(C)c4C(C)O)C(C)=C3CCC(=O)O` (stereo unspecified), the IC50 is > 100 µM (inactive).
The value for `Cc1sc(NC(=O)c2ccco2)c(C(N)=O)c1C` was “inactive”; that for `C=Cc1c(C)c2cc3[nH]c(cc4nc(cc5nc(cc1[nH]2)C(C)=C5CCC(=O)O)C(CCC(=O)O)=C4C)c(C)c3C=C` was “inactive”; that for `C=C1C(=O)O[C@@H]2/C=C(\C)CC/C=C(\C(=O)O)CC/C=C(\C)CC[C@H]12` was > 100 µM (inactive).
The value for `CN1CC(O)C2=CC(=O)C(=O)C=C21` (stereo unspecified) was > 100 µM (inactive).
Consider `O=C1NN(c2ccc(I)cc2)C(=O)/C1=C\c1ccc(O)c(O)c1`, for which the IC50 is 3.5 µM.
The value for `Cc1cc(I)c2c(c1)C1C=CCC1C(C(=O)O)N2` (stereo unspecified) was “inactive”; that for `Cc1ccc(NC(=O)c2c(NC(=O)C(F)(F)F)sc(-c3ccccc3)c2C)c(C)c1` was 8.1 µM; that for `COc1ccc(-c2c(C#N)c(N)nc(SCC(=O)c3ccc(O)c(O)c3)c2C#N)cc1` was 0.6 µM.
Then `COc1ccc(NC(=O)c2c(N)sc(-c3ccccc3)c2C)cc1`, with 2 µM; and `O=c1c(O)c(-c2ccc(O)c(O)c2)oc2cc(O)cc(O)c12`, with “inactive”.
Then `O=C(N/N=C/c1ccccc1Cl)c1cc(O)c(O)c(O)c1`, with “inactive”; and `Cc1ccc(C(=O)Nc2sc(C)c(C)c2C(N)=O)cc1`, with 2.2 µM; and `COc1cc(-c2[o+]c3cc(O)cc(O)c3cc2O)cc(O)c1O`, with “inactive”.
Turning to `NC(=O)c1c(NC(=O)CCc2ccccc2)sc2c1CCCCCC2`, the IC50 was 2 µM.
The value for `COc1ccc(/C=C\C(=O)c2c(-c3ccccc3)c3cc(C)ccc3[nH]c2=O)c(OC)c1` was 9 µM; that for `CC(C)c1ccc(O)c(O)c(=O)c1` (tested in a mixture with another compound) was “inactive”; that for `Cc1ccccc1-n1c(O)c(C=C2C=CC=N2)c(=O)[nH]c1=S` was 8 µM.
Then `COc1ccc(-c2nc3sc(-c4ccc(OC)cc4)nc3s2)cc1`, with > 100 µM (inactive).
For `CC(C)c1ccc(O)c(=O)cc1`, the IC50 is > 100 µM (inactive).
On to `O=C1c2ccccc2C(=O)c2c1cc(O)c(O)c2O`, for which the IC50 entry was “inactive”.
Then `CCOc1cccc(N2C(=O)/C(=C/c3cn(CC(=O)OC)c4ccccc34)C(=O)NC2=S)c1`, with 6.2 µM; and `C[C@H]1[C@H](O)c2c(c3c(c4c(-c5ccccc5)cc(=O)oc24)OC(C)(C)C=C3)O[C@@H]1C`, with > 100 µM (inactive).
Then `COc1cc(C)cc2c(-c3c(O)cc(O)c4c3C[C@@H](C)N[C@@H]4C)cc(-c3cc(-c4c(O)cc(O)c5c4C[C@@H](C)N[C@@H]5C)c4cc(C)cc(OC)c4c3O)c(O)c12`, with 1.2 µM; and `Cc1cccc(NC(=O)c2c(NC(=O)c3ccc([N+](=O)[O-])cc3)sc3c2CCCC3)c1`, with 0.28 µM.
The value for `COc1cc([C@@H]2c3cc4c(cc3C[C@H]3COC(=O)[C@@H]32)OCO4)cc(OC)c1O` was 2.4 µM.
For the compound `O=C(O)C1Nc2c(Cl)cc(Cl)cc2C2C=CCC12` (stereo unspecified), the IC50 result was “inactive”.

As usually defined, the IC50 is the concentration at which inhibition is half-maximal.
